Data on 9 molecules can be found in patent US9328093B2, “Selective inhibitors of ubiquitin specific protease 7, the pharmaceutical compositions thereof and their therapeutic applications” (HYBRIGENICS SA, priority 2010, dated 2016).

The target in assay [1] is T1, UCH-L1 (Homo sapiens, UniProt P09936).
T1 sequence (P09936 1-223): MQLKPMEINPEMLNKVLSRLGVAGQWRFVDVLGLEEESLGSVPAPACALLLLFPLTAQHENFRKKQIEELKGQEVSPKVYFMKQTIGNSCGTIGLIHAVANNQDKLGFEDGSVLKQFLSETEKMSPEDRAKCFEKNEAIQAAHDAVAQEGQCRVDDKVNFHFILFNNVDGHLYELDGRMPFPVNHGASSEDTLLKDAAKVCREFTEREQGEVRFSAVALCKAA
Briefly: UCH-L1 activity assay (Ub-AMC substrate). The format is biochemical. The settings on record: Ub-AMC 300 nM, UCH-L1 2.5 nM. Here is the method: UCH-L1 was diluted in USP buffer (50 mM Tris HCl; 0.5 mM EDTA; 5 mM DTT; 0.01% Triton X-100; Bovine Serum Albumin 0.05 mg·ml^−1 pH7.6). Compounds stocks (100 mM) were stored at −20° C. in DMSO. Compounds were tested at different concentrations: from 200 μM to 91 nM.
Reactions were performed as duplicates in Black 384 well plates (small volume microplates; Greiner; 10 μl final reaction volume). The substrate concentration for UCH-L1 was 300 nM Ub-AMC (Boston Biochem). The concentration of the enzyme (UCH-L1) in specificity assays was 2.5 nM. The concentrations were determined in order to perform specificity assays under initial velocities at fixed substrate concentration. Compounds were pre-incubated with enzymes for 30 minutes at 25° C. Reactions were initiated by addition of substrate to the plates containing the enzymes (+/− compounds) diluted in assay buffer. Reactions were incubated for 60 minutes at 37° C. Reactions were stopped by adding acetic acid (100 mM final). Readings were performed on a Pherastar Fluorescent Reader (BMG). λ Emission 380 nm; λ Excitation=460 nm. Data (mean values +/− standard deviation) were analyzed as % of control (no compound) and plotted as percentage versus the Log of the compound concentration using GraphPad (Prism). Data were fitted to a sigmoidal model (variable slope).

Assay [2] has as its target T2, USP5 (Homo sapiens, UniProt P45974).
T2 sequence (P45974 1-858): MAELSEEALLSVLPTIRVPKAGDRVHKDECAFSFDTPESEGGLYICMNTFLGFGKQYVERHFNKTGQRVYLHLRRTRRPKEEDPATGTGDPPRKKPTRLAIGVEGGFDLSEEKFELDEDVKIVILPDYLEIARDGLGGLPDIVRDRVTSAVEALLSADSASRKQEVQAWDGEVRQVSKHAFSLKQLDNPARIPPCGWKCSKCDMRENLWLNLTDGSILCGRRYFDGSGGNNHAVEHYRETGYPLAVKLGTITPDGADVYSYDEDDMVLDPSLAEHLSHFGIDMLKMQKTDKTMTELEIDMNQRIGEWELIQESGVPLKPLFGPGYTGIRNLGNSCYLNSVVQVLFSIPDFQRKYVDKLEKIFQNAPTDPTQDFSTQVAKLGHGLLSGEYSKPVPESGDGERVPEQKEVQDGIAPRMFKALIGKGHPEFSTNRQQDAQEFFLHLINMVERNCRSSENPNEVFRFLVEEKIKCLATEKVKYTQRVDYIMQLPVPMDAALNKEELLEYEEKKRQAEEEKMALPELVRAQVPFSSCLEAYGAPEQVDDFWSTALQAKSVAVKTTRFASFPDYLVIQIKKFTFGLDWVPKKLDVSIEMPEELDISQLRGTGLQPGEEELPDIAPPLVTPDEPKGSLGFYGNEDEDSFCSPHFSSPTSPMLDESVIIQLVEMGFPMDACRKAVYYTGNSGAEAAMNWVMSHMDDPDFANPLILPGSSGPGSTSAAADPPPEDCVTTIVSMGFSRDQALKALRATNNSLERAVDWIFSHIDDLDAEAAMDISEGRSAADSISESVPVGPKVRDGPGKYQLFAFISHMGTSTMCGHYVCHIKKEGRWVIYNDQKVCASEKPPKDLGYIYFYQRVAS
Nature of the assay: USP5 activity assay (Ub-AMC substrate). The format is biochemical. The settings on record: Ub-AMC 300 nM, USP5 300 pM. Here is the method:
USP5 was diluted in USP buffer (50 mM Tris HCl; 0.5 mM EDTA; 5 mM DTT; 0.01% Triton X-100; Bovine Serum Albumin 0.05 mg·ml^−1 pH 7.6). Compounds stocks (100 mM) were stored at −20° C. in DMSO. Compounds were tested at different concentrations: from 200 μM to 91 nM.
Reactions were performed as duplicates in Black 384 well plates (small volume microplates; Greiner; 10 μl final reaction volume). The substrate concentration for USP5 was 300 nM Ub-AMC (Boston Biochem). The concentrations of the enzyme (USP5) in specificity assays was 300 pM. The concentrations were determined in order to perform specificity assays under initial velocities at fixed substrate concentration. Compounds were pre-incubated with enzymes for 30 minutes at 25° C. Reactions were initiated by addition of substrate to the plates containing the enzymes (+/− compounds) diluted in assay buffer. Reactions were incubated for 60 minutes at 37° C. Reactions were stopped by adding acetic acid (100 mM final). Readings were performed on a Pherastar Fluorescent Reader (BMG). λ Emission 380 nm; λ Excitation=460 nm. Data (mean values +/− standard deviation) were analyzed as % of control (no compound) and plotted as percentage versus the Log of the compound concentration using GraphPad (Prism). Data were fitted to a sigmoidal model (variable slope).

On to `CC1CCCCN1CCCNC(=O)c1ccc2c(Cl)c3c(nc2c1)CCCC3` (stereo not drawn) [Example 20, 9-chloro-N-(3-(2-methylpiperidin-1-yl)propyl)-516,7,8-tetrahydroacridine-3-carboxamide], for which the IC50 in assay [1] and in assay [2] was greater than 200 µM in each case.

For `O=C(NCC1CCNCC1)c1ccc2c(Cl)c3c(nc2c1)CCCC3` [Example 24, 9-chloro-N-((piperidin-4-yl)methyl)-5,6,7,8-tetrahydroacridine-3-carboxamide], the IC50 in assay [1] and in assay [2] was greater than 200 µM each time.

Turning to `CN(C)c1ccc(CN2CCC(CNC(=O)c3ccc4c(Cl)c5c(nc4c3)CCCC5)CC2)cc1` [Example 23], the IC50 in assay [1] and in assay [2] was greater than 200 µM throughout.

As for `COc1ccc(CN2CCC(CNC(=O)c3ccc4c(Cl)c5c(nc4c3)CCCC5)CC2)cc1` [Example 22, 9-chloro-N-((1-(4-methoxybenzyl)piperidin-4-yl)methyl)-5,6,7,8-tetrahydroacridine-3-carboxamide], the IC50 in assay [1] and in assay [2] was greater than 200 µM each time.

Turning to `O=C(NCc1ccc(CN2CCCC2)cc1)c1ccc2c(Cl)c3c(nc2c1)CCCC3` [Example 21, 9-chloro-N-(4-(pyrrolidin-1-ylmethyl)benzyl)-5,6,7,8-tetrahydroacridine-3-carboxamide], the IC50 in assay [1] and in assay [2] was greater than 200 µM in each case.

`CN1CCCC1CCNC(=O)c1ccc2c(Cl)c3c(nc2c1)CCCC3` (stereo not drawn) [Example 17, 9-chloro-N-(2-(1-methylpyrrolidin-2-yl)ethyl)-5,6,7,8-tetrahydroacridino-3-carboxamide]: the IC50 in assay [1] and in assay [2] was greater than 200 µM throughout.

For the molecule `O=C(NCC(CN1CCCC1)C(O)c1ccccc1)c1ccc2c(Cl)c3c(nc2c1)CCCC3` (stereo not drawn) [Example 25, 9-chloro-N-(3-hydroxy-3-phenyl-2-pyrrolidin-1-ylmethylpropyl)-5,6,7,8-tetrahydroacridine-3-carboxamide], the IC50 in assay [1] and in assay [2] was greater than 200 µM throughout.

Regarding `O=C(Nc1cccc(CN2CCCC2)c1)c1ccc2c(Cl)c3c(nc2c1)CCCC3` [Example 19, 9-chloro-N-(3-(pyrrolidin-1-ylmethyl)phenyl)-5.6,7,8-tetrahydroacridine-3-carboxamide], the IC50 in assay [1] and in assay [2] was greater than 200 µM throughout.

As to `O=C(NCc1cccc(CN2CCCC2)c1)c1ccc2c(Cl)c3c(nc2c1)CCCC3` [Example 18, 9-chloro-N-(3-(pyrrolidin-1-ylmethyl)benzyl)-5,6,7,8-tetrahydroacridine-3-carboxamide], the IC50 in assay [1] and in assay [2] was greater than 200 µM in each case.
